From patent publication US9833497B2, “Human originated EGF domain proteins and use of the same” (CHENGDU SOURCEBIO LIMITED-LIABILITY COMPANY, priority 2013, dated 2017)

What follows are substances tested on E. coli BL21 (assay: MIC against Gram-negative bacteria: E. coli BL21). Settings: E. coli BL21; 96-well plate, 5×10^5 CFU/mL, 37° C., 10 h.
Format: cell-based
Method in brief: (§1)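 Antibacterial activity of purified human EGF domain proteins: two-fold concentration series, triplicate wells, LB broth, 5×10^5 CFU/mL bacteria, 37° C shaking incubation. The lowest concentration without growth defines the MIC.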
“PRT1254 (DVDECSEGTDDCHIDAICQNTPKSYKCLCKPGYKGEGKQCE; listed as Homo sapiens)” was tested, and the “MIC against E. coli BL21” value was 25 µg/mL. “PRT21 (NCATPCTEGCECNQGFVLSTSQCV; listed as Homo sapiens)” was tested, and the “MIC (μg/mL) E. coli BL21” value was 50 µg/mL. With “PRT134 (IKDRCLPNYCEHGGSCSQSWTTFYCNCSDTSYTGATCH; listed as Homo sapiens)” the “MIC (μg/mL) E. coli BL21” value was 12.5 µg/mL.

The substances below were run on Proteus vulgaris (assay: MIC against Gram-negative bacteria: Proteus vulgaris). Settings: Proteus vulgaris; 96-well plate, 5×10^5 CFU/mL, 37° C., 10 h.
Format: cell-based
Method in brief: as §1
“PRT1254 (DVDECSEGTDDCHIDAICQNTPKSYKCLCKPGYKGEGKQCE; listed as Homo sapiens)” was tested, and the “MIC against P. vulgaris” value was 25 µg/mL. For “PRT21 (NCATPCTEGCECNQGFVLSTSQCV; listed as Homo sapiens)”, the “MIC (μg/mL) P. vulgaris” value was 25 µg/mL. With “PRT134 (IKDRCLPNYCEHGGSCSQSWTTFYCNCSDTSYTGATCH; listed as Homo sapiens)” the “MIC (μg/mL) P. vulgaris” value was 25 µg/mL.

Each substance was assayed on Aeromonas hydrophila (assay: MIC against Gram-negative bacteria: Aeromonas hydrophila). Settings: Aeromonas hydrophila; 96-well plate, 5×10^5 CFU/mL, 37° C., 10 h.
Format: cell-based
Method in brief: as §1
For “PRT1254 (DVDECSEGTDDCHIDAICQNTPKSYKCLCKPGYKGEGKQCE; listed as Homo sapiens)”, the “MIC against A. hydrophila” value was 50 µg/mL. “PRT21 (NCATPCTEGCECNQGFVLSTSQCV; listed as Homo sapiens)” was tested, and the “MIC (μg/mL) A. hydrophila” value was 12.5 µg/mL. In the case of “PRT134 (IKDRCLPNYCEHGGSCSQSWTTFYCNCSDTSYTGATCH; listed as Homo sapiens)”, the “MIC (μg/mL) A. hydrophila” value was 25 µg/mL.

The substances below were run on Pseudomonas aeruginosa (assay: MIC against Gram-negative bacteria: Pseudomonas aeruginosa). Settings: Pseudomonas aeruginosa; 96-well plate, 5×10^5 CFU/mL, 37° C., 10 h.
Format: cell-based
Method in brief: as §1
In the case of “PRT1254 (DVDECSEGTDDCHIDAICQNTPKSYKCLCKPGYKGEGKQCE; listed as Homo sapiens)”, the “MIC against P. aeruginosa” value was 50 µg/mL. In the case of “PRT21 (NCATPCTEGCECNQGFVLSTSQCV; listed as Homo sapiens)”, the “MIC (μg/mL) P. aeruginosa” value was 12.5 µg/mL. In the case of “PRT134 (IKDRCLPNYCEHGGSCSQSWTTFYCNCSDTSYTGATCH; listed as Homo sapiens)”, the “MIC (μg/mL) P. aeruginosa” value was 12.5 µg/mL.

The substances below were run on Klebsiella pneumonia (assay: MIC against Gram-negative bacteria: Klebsiella pneumonia). Settings: Klebsiella pneumonia; 96-well plate, 5×10^5 CFU/mL, 37° C., 10 h.
Format: cell-based
Method in brief: as §1
“PRT1254 (DVDECSEGTDDCHIDAICQNTPKSYKCLCKPGYKGEGKQCE; listed as Homo sapiens)” was tested, and the “MIC against K. pneumonia” value was 25 µg/mL. In the case of “PRT21 (NCATPCTEGCECNQGFVLSTSQCV; listed as Homo sapiens)”, the “MIC (μg/mL) K. pneumonia” value was 25 µg/mL. “PRT134 (IKDRCLPNYCEHGGSCSQSWTTFYCNCSDTSYTGATCH; listed as Homo sapiens)” was tested, and the “MIC (μg/mL) K. pneumonia” value was 25 µg/mL.

What follows are substances tested on Serratia marcescens (assay: MIC against Gram-negative bacteria: Serratia marcescens). Settings: Serratia marcescens; 96-well plate, 5×10^5 CFU/mL, 37° C., 10 h.
Format: cell-based
Method in brief: as §1
For “PRT1254 (DVDECSEGTDDCHIDAICQNTPKSYKCLCKPGYKGEGKQCE; listed as Homo sapiens)”, the “MIC against S. marcescens” value was 50 µg/mL. In the case of “PRT21 (NCATPCTEGCECNQGFVLSTSQCV; listed as Homo sapiens)”, the “MIC (μg/mL) S. marcescens” value was 50 µg/mL. “PRT134 (IKDRCLPNYCEHGGSCSQSWTTFYCNCSDTSYTGATCH; listed as Homo sapiens)” was tested, and the “MIC (μg/mL) S. marcescens” value was 12.5 µg/mL.

What follows are substances tested on Enterobacter cloacae (assay: MIC against Gram-negative bacteria: Enterobacter cloacae). Settings: Enterobacter cloacae; 96-well plate, 5×10^5 CFU/mL, 37° C., 10 h.
Format: cell-based
Method in brief: as §1
With “PRT1254 (DVDECSEGTDDCHIDAICQNTPKSYKCLCKPGYKGEGKQCE; listed as Homo sapiens)” the “MIC against E. cloacae” value was 12.5 µg/mL. “PRT21 (NCATPCTEGCECNQGFVLSTSQCV; listed as Homo sapiens)” was tested, and the “MIC (μg/mL) E. cloacae” value was 50 µg/mL. In the case of “PRT134 (IKDRCLPNYCEHGGSCSQSWTTFYCNCSDTSYTGATCH; listed as Homo sapiens)”, the “MIC (μg/mL) E. cloacae” value was 12.5 µg/mL.

These substances were tested on Proteus mirabilis (assay: MIC against Gram-negative bacteria: Proteus mirabilis). Settings: Proteus mirabilis; 96-well plate, 5×10^5 CFU/mL, 37° C., 10 h.
Format: cell-based
Method in brief: as §1
“PRT1254 (DVDECSEGTDDCHIDAICQNTPKSYKCLCKPGYKGEGKQCE; listed as Homo sapiens)” was tested, and the “MIC against P. mirabilis” value was 12.5 µg/mL. For “PRT21 (NCATPCTEGCECNQGFVLSTSQCV; listed as Homo sapiens)”, the “MIC (μg/mL) P. mirabilis” value was 50 µg/mL. “PRT134 (IKDRCLPNYCEHGGSCSQSWTTFYCNCSDTSYTGATCH; listed as Homo sapiens)” was tested, and the “MIC (μg/mL) P. mirabilis” value was 100 µg/mL.

The substances below were run on E. coli DH5α (assay: Antibacterial activity: MIC and growth curve against E. coli DH5α in 96-well plate). Settings: minimal inhibitory concentration against E. coli DH5α; 96-well plate, 5×10^5 CFU/mL, 37° C., judged after 8 h.
Format: cell-based
Method in brief: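 Log-phase bacteria (OD600 ~0.5) resuspended in LB at 5×10^5 CFU/mL, exposed to recombinant protein at 50, 25, 12.5 μg/mL final in triplicate, 37 °C shaking at 175 rpm. OD600 read every 30 min; MIC is lowest concentration showing no growth.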
With “PRT1254 (DVDECSEGTDDCHIDAICQNTPKSYKCLCKPGYKGEGKQCE; listed as Homo sapiens)” the MIC was 12.5 µg/mL. For “PRT21 (NCATPCTEGCECNQGFVLSTSQCV; listed as Homo sapiens)”, the MIC was 25 µg/mL. “PRT134 (IKDRCLPNYCEHGGSCSQSWTTFYCNCSDTSYTGATCH; listed as Homo sapiens)” showed an MIC of 12.5 µg/mL.

These substances were tested on Moraxella catarrhalis (assay: MIC against Gram-negative bacteria: Moraxella catarrhalis). Settings: Moraxella catarrhalis; 96-well plate, 5×10^5 CFU/mL, 37° C., 10 h.
Format: cell-based
Method in brief: as §1
“PRT1254 (DVDECSEGTDDCHIDAICQNTPKSYKCLCKPGYKGEGKQCE; listed as Homo sapiens)” was tested, and the “MIC against M. catarrhalis” value was 50 µg/mL. “PRT21 (NCATPCTEGCECNQGFVLSTSQCV; listed as Homo sapiens)” was tested, and the “MIC (μg/mL) M. catarrhalis” value was 12.5 µg/mL. For “PRT134 (IKDRCLPNYCEHGGSCSQSWTTFYCNCSDTSYTGATCH; listed as Homo sapiens)”, the “MIC (μg/mL) M. catarrhalis” value was 12.5 µg/mL.

The substances below were run on Citrobacter diversus (assay: MIC against Gram-negative bacteria: Citrobacter diversus). Settings: Citrobacter diversus; 96-well plate, 5×10^5 CFU/mL, 37° C., 10 h.
Format: cell-based
Method in brief: as §1
“PRT1254 (DVDECSEGTDDCHIDAICQNTPKSYKCLCKPGYKGEGKQCE; listed as Homo sapiens)” was tested, and the “MIC against C. diversus” value was 12.5 µg/mL. In the case of “PRT21 (NCATPCTEGCECNQGFVLSTSQCV; listed as Homo sapiens)”, the “MIC (μg/mL) C. diversus” value was 25 µg/mL. For “PRT134 (IKDRCLPNYCEHGGSCSQSWTTFYCNCSDTSYTGATCH; listed as Homo sapiens)”, the “MIC (μg/mL) C. diversus” value was 25 µg/mL.
